± gives the uncertainty stated by the source.
Experiments:
[1] = test system: Klebsiella pneumoniae ATCC 13882; experiment: rate of pH (A557-A630) increase, Gompertz fit (10^-4 s-1); higher = faster ureolysis; extreme values may be limits of the assay
Description: (§1)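 Klebsiella pneumoniae ATCC 13882 (start OD600 0.05) grown in M9U medium with 40 mM urea and phenol red plus inhibitor, in triplicate in 96-well plates. A557 and OD630 were read every 15 min for 24 h. Ureolysis was followed as the pH-related A557-A630: onset time, Gompertz-fit rate and final value. Growth was followed as OD630.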

[2] = test system: Klebsiella pneumoniae ATCC 13882; experiment: final OD630 (growth) after 24 h; higher = more bacterial growth; extreme values may be limits of the assay
Description: as §1

[3] = test system: Klebsiella pneumoniae ATCC 13882; experiment: onset of ureolytic pH increase; higher = more delayed ureolysis (inhibition)
Description: as §1

[4] = test system: Klebsiella pneumoniae ATCC 13882; experiment: final pH-related absorbance (A557-A630) after 24 h (absorbance units); higher = more ureolysis; extreme values may be limits of the assay
Description: as §1

Row | SMILES | rate of pH ([1]; 0.1 mM) | rate of pH ([1]; 1 mM) | rate of pH ([1]; 10 mM) | final OD630 ([2]; 0.1 mM) | final OD630 ([2]; 1 mM) | final OD630 ([2]; 10 mM) | onset of ureolytic pH increase ([3]; 0.1 mM) [h] | onset of ureolytic pH increase ([3]; 1 mM) [h] | onset of ureolytic pH increase ([3]; 10 mM) | final pH-related absorbance ([4]; 0.1 mM) | final pH-related absorbance ([4]; 1 mM) | final pH-related absorbance ([4]; 10 mM) | rate of pH ([1]; 0.007 mM) | rate of pH ([1]; 0.07 mM) | rate of pH ([1]; 0.7 mM) | final OD630 ([2]; 0.007 mM) | final OD630 ([2]; 0.07 mM) | final OD630 ([2]; 0.7 mM) | onset of ureolytic pH increase ([3]; 0.007 mM) [h] | onset of ureolytic pH increase ([3]; 0.07 mM) [h] | onset of ureolytic pH increase ([3]; 0.7 mM) [h] | final pH-related absorbance ([4]; 0.007 mM) | final pH-related absorbance ([4]; 0.07 mM) | final pH-related absorbance ([4]; 0.7 mM)
1 | CNC(=O)NC [N.N'-Dimethylurea] | 1.69 ± 0.054 | 1.77 ± 0.022 | 0.0814 ± 0.0017 | 0.502 ± 0.0051 | 0.411 ± 0.018 | 0 | 9.871 ± 0.0467 | 13.1 ± 0.483 | 0 min | 0.213 ± 0.004 | 0.197 ± 0.095 | 0.456 ± 0.0086 |  |  |  |  |  |  |  |  |  |  |  | 
2 | O=C(O)C(=O)O [Oxalic acid] | 1.52 ± 0.024 | 1.62 ± 0.013 | 0 | 0.435 ± 0.0093 | 0.441 ± 0.0005 | 0.089 ± 0.0056 | 11.3 ± 0.015 | 11.29 ± 0.0183 | > 15 h | 0.334 ± 0.008 | 0.291 ± 0.0011 | 0 |  |  |  |  |  |  |  |  |  |  |  | 
3 | NP(N)(=O)Oc1ccccc1 [Phenyl phosphorodiamidate] |  |  |  |  |  |  |  |  |  |  |  |  | 0 | 0 | 0 | 0.421 ± 0.0059 | 0.4185 ± 0.004 | 0.384 ± 0.01 | > 15 | > 15 | > 15 | 0 | 0 | 0
4 | O=S(O)S(=O)(=O)O [Potassium disulfite] | 1.766 ± 0.005 | 0.8111 ± 0.002 | 0 | 0.462 ± 0.012 | 0.531 ± 0.001 | 0.024 ± 0.002 | 7.117 ± 0.025 | 8.65 ± 0.2 | > 15 h | 0.358 ± 0.002 | 0.356 ± 0.014 | 0 |  |  |  |  |  |  |  |  |  |  |  | 
5 | [K+].[O]=[Mn](=[O])(=[O])[O-] [Potassium permanganate] | 1.65 ± 0.032 | 0 |  | 0.444 ± 0.0025 | 0 |  | 11.35 ± 0.107 | > 25 |  | 0.062 ± 0.0044 | 0 |  |  |  |  |  |  |  |  |  |  |  |  | 
6 | Oc1ccccc1O [Pyrocatechol] | 1.789 ± 0.015 | 1.74 ± 0.016 |  | 0.425 ± 0.0055 | 0.462 ± 0.0061 | 0 | 11.07 ± 0.07 | 14.6 ± 0.35 |  | 0.397 ± 0.0008 | 0.369 ± 0.011 |  |  |  |  |  |  |  |  |  |  |  |  | 
7 | [F-].[Na+] [Sodium flouride] | 1.35 ± 0.025 | 0 | 0 | 0.408 ± 0.0001 | 0.368 ± 0.0081 | 0.335 ± 0.0025 | 12.22 ± 0.0567 | > 25 | > 25 h | 0.178 ± 0.0021 | 0 | 0 |  |  |  |  |  |  |  |  |  |  |  | 
8 | O=S([O-])[O-].[Na+].[Na+] [Sodium sulfite] | 2.1 ± 0.24 | 1.883 ± 0.013 | 0.984 ± 0.011 | 0.477 ± 0.013 | 0.504 ± 0.027 | 0.416 ± 0.004 | 7 ± 0.217 | 7.4 ± 0.4 | 9.88 ± 0.125 h | 0.461 ± 0.054 | 0.373 ± 0.006 | 0.273 ± 0.011 |  |  |  |  |  |  |  |  |  |  |  | 

Source: the supplement of paper PMC7244745
